How the values were obtained:
ciGPR84 [1] = target: T1, ciGPR84 (Ctenopharyngodon idella, UniProt A0A8K1PH93); experiment: pGL4.29 (CRE) luciferase reporter assay, inhibition of forskolin-induced cAMP signaling in HEK293T cells transfected with ciGPR84; format: cell-based, grass carp (Ctenopharyngodon idella); conditions: HEK293T co-transfected with pciGPR84 and pGL4.29, 5 μM forskolin, 6 h treatment; for IC50: read-out: IC50 (half-maximal inhibitory concentration) on cAMP through ciGPR84
Method: (§1) Human embryonic kidney cells HEK293T obtained from Beyotime Biotechnology (Shanghai, China) were cultured with Dulbecco’s Modified Eagle Medium (DMEM) containing a 10% fetal bovine serum in an incubator (37 °C and 5% CO2 humidified atmosphere). The cells were plated into 24-well plates and cultured for 24 h before assays. The Countess 3 cell counter (Invitrogen, Waltham, MA, USA) was used for cell counting.
(§2) The functionality of ciGPR84 was assessed using our established method. Specifically, the coding sequence (CDS) of ciGPR84 was subcloned into the pcDNA3.1 (+) vector (Invitrogen, Carlsbad, CA, USA), resulting in the construction of pcDNA3.1-ciGPR84 (pciGPR84). HEK293T cells were co-transfected with pciGPR84 (or pcDNA3.1 empty vector), two luciferase reporter vectors (pGL4.29 and pGL4.33) containing a cAMP response element (CRE) and serum response element (SRE), respectively, and pEGFP-N1 (as an internal control for transfection normalization) in a mixture with polyethyleneimine (PEI) transfection reagent (Fusheng Biotechnology, Shanghai, China). The cells were then incubated in the original medium for 24 h, transferred to a 48-well plate, and grown for an additional 24 h to reach a cell density of 2 × 10^5 cells per well. […] It is important to note that due to the anticipated inhibitory effect of MCFA on the intracellular cAMP, 5 μM forskolin was added to all wells transfected with pGL4.29 to pre-activate the cellular adenylyl cyclase.
(§3) After the treatment, cells were lysed with 1 × passive lysis buffer (Beyotime Biotechnology, Shanghai, China), and a luciferase substrate was added to initiate a glow-generating reaction. The luminescence signals were measured using a Tecan F200 (Tecan, Männedorf, Switzerland) microplate reader to determine the relative luciferase activity in each well. Three independent experiments were performed for each agonist concentration (n = 3), and the data were presented as a mean ± SEM.
(§4) A data analysis was performed using GraphPad Prism 7 software (GraphPad Software, San Diego, CA, USA).

ciGPR84 [2] = target: T1, ciGPR84; experiment: pGL4.33 (SRE) luciferase reporter assay, activation of ERK signaling in HEK293T cells transfected with ciGPR84; format: cell-based, grass carp (Ctenopharyngodon idella); conditions: HEK293T co-transfected with ciGPR84 and pGL4.33 (SRE-luciferase), 6 h treatment; for EC50: read-out: EC50 for activation of ERK signaling through ciGPR84
Method: as §1, §2, §3, §4

mouse GPR84 = tested on: mouse GPR84; set-up: method as in PMID 16966319; conditions: cited from earlier work

T1 sequence (A0A8K1PH93 entry or part of it): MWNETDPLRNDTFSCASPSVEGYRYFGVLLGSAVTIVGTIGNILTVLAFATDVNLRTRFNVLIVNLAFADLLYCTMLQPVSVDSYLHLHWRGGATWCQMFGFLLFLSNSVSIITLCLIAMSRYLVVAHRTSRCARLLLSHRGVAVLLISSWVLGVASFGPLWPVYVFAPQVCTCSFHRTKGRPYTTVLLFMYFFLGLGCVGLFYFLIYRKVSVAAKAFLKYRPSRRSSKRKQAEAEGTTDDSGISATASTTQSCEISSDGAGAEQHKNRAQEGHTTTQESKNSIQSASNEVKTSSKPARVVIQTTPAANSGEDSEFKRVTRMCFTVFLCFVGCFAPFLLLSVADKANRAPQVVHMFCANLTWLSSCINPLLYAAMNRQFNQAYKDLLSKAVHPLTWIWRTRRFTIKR

activation of ERK signaling through ciGPR84 (ciGPR84 [2]; DIM 10^−8 to 10^−3)	Structure (SMILES)	inhibition of cAMP generation through ciGPR84 (ciGPR84 [1]; DIM 10^−8 to 10^−3)	IC50 (ciGPR84 [1]) [µM]	EC50 (ciGPR84 [2]) [µM]	EC50 (mouse GPR84) [µM]
did not activate the ERK signaling	c1ccc2c(Cc3c[nH]c4ccccc34)c[nH]c2c1 [DIM, diindolylmethane]	did not lead to the inhibition of cAMP generation	–	–	–
–	CCCCCCCCCCC(=O)O [undecanoic acid]	–	1490	13800	–
–	CCCCCCCCCCCC(=O)O [lauric acid]	–	301	4250	9
–	CCCCCCCCCC(=O)O [capric acid]	–	–	–	4
–	CCCCCCCCC(=O)O [nonanoic acid]	–	–	–	52
